According to patent US7202218B2, “Oligopeptide antagonist of interleukin-6” (National Taiwan University, priority 2005, dated 2007):
Where no end group is shown, it is not given here.

Key:
[1] = molecular target: T1, IL-6Rα in different cell lines (Homo sapiens, UniProt P08887); test: In vitro competition assay of synthetic peptides on cell lines; format: cell-based; conditions: synthetic peptide; FIG. 3
T1 construct: all membrane-type IL-6Rα-expressing cell lines; endogenous in cells
T1 sequence (P08887 20-468): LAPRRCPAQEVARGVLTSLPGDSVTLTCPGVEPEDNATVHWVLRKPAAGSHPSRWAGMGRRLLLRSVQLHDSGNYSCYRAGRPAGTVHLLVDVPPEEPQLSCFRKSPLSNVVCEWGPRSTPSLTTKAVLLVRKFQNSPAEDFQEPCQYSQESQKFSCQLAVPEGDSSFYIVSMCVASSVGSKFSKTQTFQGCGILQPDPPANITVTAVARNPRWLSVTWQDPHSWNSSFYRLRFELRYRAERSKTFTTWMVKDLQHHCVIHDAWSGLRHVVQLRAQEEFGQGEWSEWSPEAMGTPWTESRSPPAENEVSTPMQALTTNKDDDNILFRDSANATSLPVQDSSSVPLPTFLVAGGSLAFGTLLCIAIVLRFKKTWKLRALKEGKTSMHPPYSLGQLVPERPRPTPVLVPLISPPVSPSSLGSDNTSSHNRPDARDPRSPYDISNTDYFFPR
Description: The binding affinities to IL-6Rα of the 7 independent peptide sequences of the IR-6Rα-binding clones selected from phage display peptide library (Table 1) were confirmed. The phage clones with the inserted DNA encoding these 7 different peptide sequences (phage S1˜S7) were added into IL-6Rα coated 96-well cell culture plates (10^12 pfu/ml) and incubated with IL-6Rα for 1 hour. IL-6 protein (50 ng/ml, 100 μl) was added to the wells and incubated at room temperature for 2 hours. The plates were thoroughly washed with 0.1% BSA (bovine serum albumin)/PBS (phosphate-buffered saline) buffer (pH 8.5). Finally, biotin-conjugated anti-IL-6 monoclonal antibody, horseradish peroxidase (HRP)-conjugated streptavidin and tetramethyl benzidine (TMB) substrate solution were used to perform the known phage Enzyme-Linked Immunosorbent Assay (ELISA) to determine the L-6 protein bound to the cell plates.
Oligopeptides encoded by the inserted DNA in phages S7 and S1 (labeled as ‘peptide S7’ (SEQ ID NO: 7) or ‘peptide S1’ (SEQ ID NO: 1) hereafter) were produced by the known peptide synthesis method. The binding assay described in Example 1 was carried out, but using peptide S7 or peptide S1 (negative control) instead of phage clones, and using cell lines instead of IL-6Rα to perform competition assay and get the result shown in FIG. 3.

[2] = system: Ras/MAPK and PI3-K/Akt signaling pathways; test: Western blot of IL-6-induced Akt and ERK1/2 phosphorylation in C33A cells; format: cell-based, human; conditions: IL-6 50 ng/mL, peptide 50 μmol/L, FIG. 4A
Description: (§1) 80% confluent C33A cells were starved for 24 hours and then treated with human IL-6 protein (50 ng/mL) in the presence or absence of S1 peptide (50 μmol/L) or S7 peptide (50 μmol/L). Cell lysates were obtained and subjected to SDS-PAGE separation and Western blot analysis using various antibodies for immunoblotting, such as anti-phospho-ERK1/2, anti-phospho-Akt, anti-ERK1/2, and anti-Akt.

Mcl-1 protein = test: Western blot of IL-6-induced Mcl-1 protein in C33A cells; format: cell-based, human; conditions: FIG. 4B
Description: as §1
Equal amounts of cell lysates (75 μg) were resolved by SDS-PAGE, transferred to polyvinylidene difluoride membranes, and probed with specific anti-Mcl-1 antibodies as described above. β-actin served as the internal loading control to get the result shown in FIG. 4A.

VEGF-A = VEGF-A secretion, quantitative sandwich ELISA of conditioned medium; format: cell-based; conditions: C33A, RPMI 8226 and BCC cells (all three cell lines); 24 hours; FIG. 5
Description: (§2) C33A cervical cancer cells, RPMI 8226 multiple myeloma cells and basal cell carcinoma (BCC) cells, vectors (negative control) were cultivated respectively in DMEM containing 10% FBS, penicillin (100 units/ml), and streptomycin (100 μg/mL) as well as IL-6 protein. At 90% confluence, culture medium was replaced with serum-free medium. IL-6 containing C33A cells were incubated with S1 or S7 peptide for another 24 hours. Conditioned medium (CM) was collected after centrifugation of cellular debris.
The conditioned medium (CM) was concentrated using an Amicon ultracentrifugation device (Millipore). The concentrations of VEGF-A in culture supernatants were determined with quantitative sandwich ELISA assay according to the manufacturer's instruction. Briefly, cell supernatant (50 μl) was incubated with 50 μl of assay diluents for 2 hours at room temperature in a 96-well tissue culture plate coated with monoclonal antibodies against VEGF-A. After five consecutive washes, a conjugate consisting of polyclonal VEGF-A antibodies and HRP was added. The mixture was incubated for 2 hours at room temperature. Following the subsequent addition of a color reagent, absorbance was read at 450 nm using a Thermo-Max microplate reader (Molecular Devices Co., Menlo Park, Calif.).

HUVECs [3] = test: HUVEC proliferation induced by IL-6-CM, trypan blue exclusion; format: cell-based, human; conditions: CM from IL-6-overexpressed cells; 24 hours; FIG. 6
Description: as §2
HUVECs were plated onto six-well dishes (Falcon, Becton Dickinson) at a concentration of 2.5×10^5 cells per well in M199 medium supplemented with 10% FBS. One day after seeding, HUVECs were stimulated with CM from cells treated in various ways respectively, where the CM was mixed with M199 medium. Twenty-four hours later, the viable cells were counted using a trypan blue exclusion method.
For the trypan blue exclusion assay, cells were washed with PBS, trypsinized, and then resuspended in 1 ml PBS. Trypan blue-stained cells were then counted using a modified Neubauer hemocytometer under a phase-contrast light microscope.

HUVECs [4] = test: Capillary tube-like formation by HUVECs on Matrigel; format: cell-based, human; conditions: 6 hours, FIG. 7
Description: In vitro Assessment using a growth factor-reduced basement membrane Matrigel matrix was carried out to evaluate capillary tube-like formation. The Matrigel was thawed at 4° C. and mixed to homogeneity. The bottom of 96-well cell culture plates were coated with a thin layer of Matrigel (40 μl) and allow the Matrigel to polymerize at 37° C. for 30 minutes. HUVECs were resuspended in M199 medium containing 1% serum to a density of 2.5×10^4 cells/100 μl, mixed with 100 μl of M199 medium containing 1% serum and 100 μl CM from either C33A/neo or C33A/IL-6 cells treated in various ways, and finally plated onto the Matrigel-coated surface. Six hours later, cells were fixed in 4% paraformaldehyde and stained with 0.1% crystal violet. Three microscopic fields were selected at random and photographed, and the number of tube-like structures per field was determined to get the result shown in FIG. 7.

[5] = system: IL-6-induced angiogenesis; test: Matrigel plug assay, hemoglobin level; format: in vivo; conditions: BALB/c nude mice; plugs recovered after 7 days; FIG. 8
Description: On the other hand, Matrigel plug assay was performed to analyze the inhibiting effect on IL-6-induced angiogenesis of peptide S7. Matrigel (500 μl) containing CM from cells treated in various ways was […] into 4- to 8-week-old female BALB/c nude mice at sites lateral to the abdominal midline. Aforementioned CM was obtained either from vector control cells or from IL-6 overexpressed C33A cells in the presence or absence of peptide S7. The Matrigel plugs were recovered after 7 days of implementation, dissolved in PBS, and incubated at 4° C. overnight. Hemoglobin levels were determined using Drabkin's solution (Sigma Chemical) according to the manufacturer's instructions to get the result shown in FIG. 8.

C33A/IL-6 cells = test: Tumor growth inhibition in SCID mice injected with C33A/IL-6 cells; format: in vivo; conditions: 50 mg/kg i.p. every 2 days, FIG. 9
Description: Six- to 8-week-old female severe combined immunodeficient (SCID) mice were […] with 1×10^6 C33A/neo or C33A/IL-6 cells. Beginning 3 days later, S1 or S7 peptide (50 mg/kg, dissolved in PBS) was injected i.p. every 2 days. Tumor development was followed in measurements of length (L) and width (W).

Substance	antagonism of the binding of IL-6 to IL-6Rα in different cell lines [1]	inhibition of IL-6-induced phosphorylated Akt level [2]	inhibition of IL-6-induced phosphorylated ERK1/2 MAPK level [2]	IL-6-induced up-regulation of Mcl-1 protein (Mcl-1 protein)	IL-6-mediated VEGF-A secretion (VEGF-A)	IL-6-CM induced HUVECs proliferation (HUVECs [3])	C33A/IL-6-CM induced tube-like cell cord formation (HUVECs [4])	hemoglobin induction in Matrigel plugs containing C33A/IL-6-CM [5]	IL-6-induced tumor growth (C33A/IL-6 cells)	tumor growth inhibition at the end of the experiment (C33A/IL-6 cells; tumor volume) [%]
LSLITRL [peptide S7]	antagonize the binding	significantly inhibited	significantly inhibited	antagonized	significantly decreased	greatly attenuated	almost completely inhibited	almost completely inhibited	significantly reduced	76
LSLMPRL [peptide S1, negative control peptide, reference compound]		not	not			not				
